Measured values as given in PubChem BioAssay (NCI).
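Compound exposure: 48 hours, 5 concentrations, 96-well plates. TGI: total growth inhibition.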

How the values were obtained:
Experiment in all cases: NCI-60 cell line screen, 48 h
[1] = tested on: UO-31 renal
[2] = tested on: TK-10 renal
[3] = tested on: KM20L2 colon
[4] = tested on: U251 CNS
[5] = tested on: 786-0 renal
[6] = tested on: SNB-78 CNS
[7] = tested on: HL-60(TB) leukemia
[8] = tested on: RXF 393 renal
[9] = tested on: NCI-H460 lung
[10] = tested on: DLD-1 colon
[11] = tested on: CCRF-CEM leukemia
[12] = tested on: HCT-116 colon
[13] = tested on: KM12 colon
[14] = tested on: SNB-75 CNS
[15] = tested on: IGROV1 ovarian
[16] = tested on: K-562 leukemia
[17] = tested on: NCI-H226 lung
[18] = tested on: XF 498 CNS
[19] = tested on: SF-295 CNS
[20] = tested on: EKVX NSCLC
[21] = tested on: SR leukemia
[22] = tested on: SF-539 CNS
[23] = tested on: NCI-H23 lung
[24] = tested on: DMS 273 small cell lung
[25] = tested on: UACC-62 melanoma
[26] = tested on: OVCAR-8 ovarian
[27] = tested on: OVCAR-3 ovarian
[28] = tested on: A549 NSCLC
[29] = tested on: OVCAR-5 ovarian
[30] = tested on: MOLT-4 leukemia
[31] = tested on: HCT-15 colon
[32] = tested on: HCC-2998 colon
[33] = tested on: SK-MEL-5 melanoma
[34] = tested on: SN12C renal
[35] = tested on: SK-MEL-28 melanoma
[36] = tested on: HT29 colon
[37] = tested on: ACHN renal
[38] = tested on: SK-MEL-2 melanoma
[39] = tested on: M14 melanoma
[40] = tested on: SNB-19 CNS
[41] = tested on: DMS 114 small cell lung
[42] = tested on: OVCAR-4 ovarian
[43] = tested on: COLO 205 colon
[44] = tested on: SF-268 CNS

SMILES: CN1CCc2cc(O)c3cc2C1Cc1ccc(cc1)Oc1cc(ccc1O)CC1c2c(cc4c(c2O3)OCO4)CCN1C (centres undefined)
- TGI [1]: 9.46 µM
- TGI [2]: 92.2 µM
- TGI [3]: 45.9 µM
- TGI [4]: > 100 µM
- TGI [5]: > 100 µM
- TGI [6]: > 100 µM
- TGI [7]: 38.8 µM
- TGI [8]: 60.2 µM
- TGI [9]: > 100 µM
- TGI [10]: > 100 µM
- TGI [11]: > 100 µM
- TGI [12]: > 100 µM
- TGI [13]: > 100 µM
- TGI [14]: 39.4 µM
- TGI [15]: > 100 µM
- TGI [16]: 39.4 µM
- TGI [17]: 47.7 µM
- TGI [18]: 29.2 µM
- TGI [19]: 43.6 µM
- TGI [20]: 70.7 µM
- TGI [21]: > 100 µM
- TGI [22]: 32.6 µM
- TGI [23]: > 100 µM
- TGI [24]: 86.2 µM
- TGI [25]: 47.5 µM
- TGI [26]: 48.9 µM
- TGI [27]: > 100 µM
- TGI [28]: > 100 µM
- TGI [29]: 87.7 µM
- TGI [30]: 85.4 µM
- TGI [31]: 60 µM
- TGI [32]: 41.7 µM
- TGI [33]: 33.1 µM
- TGI [34]: > 100 µM
- TGI [35]: 46.4 µM
- TGI [36]: 74.4 µM
- TGI [37]: > 100 µM
- TGI [38]: 34.2 µM
- TGI [39]: 32.2 µM
- TGI [40]: > 100 µM
- TGI [41]: 39.4 µM
- TGI [42]: 88.6 µM
- TGI [43]: 28.8 µM
- TGI [44]: > 100 µM
